Data as given in the supplement of paper PMC10307832.

How the values were obtained:
Test in all cases: relative viability (nuclei count vs DMSO), 5 days (fraction); higher = more cells survive
[1] = tested on: NCI-H727
Method in brief: (§1)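 Lung cancer cell lines in 1536-well plates were dosed by pin tool the day after seeding, either with one drug alone or with a fixed anchor-drug dose plus five library-drug doses (not always all listed) in √10 steps. After 5 days, cells were fixed and their nuclei stained in one step (final 0.05% Triton X-100, 1% formaldehyde, 1 ug/ml Hoechst), then counted on 4× images. Relative viability is the nuclei count in treated wells divided by that in vehicle wells. Values are medians of duplicate plates.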

[2] = tested on: NCI-H1650
Method in brief: as §1

[3] = tested on: SK-LU-1
Method in brief: as §1

[4] = tested on: LXF-289
Method in brief: as §1

[5] = tested on: LCLC-97TM1
Method in brief: as §1

[6] = tested on: HCC-827
Method in brief: as §1

[7] = tested on: NCI-H322M
Method in brief: as §1

[8] = tested on: NCI-H2405
Method in brief: as §1

[9] = tested on: HCC-44
Method in brief: as §1

[10] = tested on: NCI-H1437
Method in brief: as §1

[11] = tested on: BEN
Method in brief: as §1

[12] = tested on: HOP-62
Method in brief: as §1

[13] = tested on: NCI-H3122
Method in brief: as §1

[14] = tested on: NCI-H647
Method in brief: as §1

[15] = tested on: LCLC-103H
Method in brief: as §1

[16] = tested on: NCI-H2228
Method in brief: as §1

[17] = tested on: 201T
Method in brief: as §1

[18] = tested on: NCI-H2087
Method in brief: as §1

[19] = tested on: RERF-LC-KJ
Method in brief: as §1

[20] = tested on: CAL-12T
Method in brief: as §1

## CC1(C)CCC(c2ccc(Cl)cc2)=C(CN2CCN(c3ccc(C(=O)NS(=O)(=O)c4ccc(N[C@H](CCN5CCOCC5)CSc5ccccc5)c(S(=O)(=O)C(F)(F)F)c4)cc3)CC2)C1 [Navitoclax] + CC(C)C[C@H](NC(=O)[C@H](Cc1ccccc1)NC(=O)c1cnccn1)B(O)O [Bortezomib] (partner 0.002 µM)
[1]; first compound 0.005 µM
  relative viability: 0.898
[1]; first compound 0.01581 µM
  relative viability: 0.888
[1]; first compound 0.1581 µM
  relative viability: 1.05
[1]; first compound 0.5 µM
  relative viability: 0.767
[2]; first compound 0.005 µM
  relative viability: 0.183
[2]; first compound 0.01581 µM
  relative viability: 0.213
[2]; first compound 0.05 µM
  relative viability: 0.165
[2]; first compound 0.1581 µM
  relative viability: 0.191
[2]; first compound 0.5 µM
  relative viability: 0.163
[3]; first compound 0.005 µM
  relative viability: 1.19
[3]; first compound 0.01581 µM
  relative viability: 1.12
[3]; first compound 0.05 µM
  relative viability: 0.477
[3]; first compound 0.1581 µM
  relative viability: 1.09
[3]; first compound 0.5 µM
  relative viability: 0.961
[4]; first compound 0.005 µM
  relative viability: 0.989
[4]; first compound 0.01581 µM
  relative viability: 1.05
[4]; first compound 0.05 µM
  relative viability: 0.928
[4]; first compound 0.1581 µM
  relative viability: 0.967
[4]; first compound 0.5 µM
  relative viability: 0.959
[5]; first compound 0.005 µM
  relative viability: 0.696
[5]; first compound 0.01581 µM
  relative viability: 1.06
[5]; first compound 0.05 µM
  relative viability: 0.583
[5]; first compound 0.1581 µM
  relative viability: 0.6
[5]; first compound 0.5 µM
  relative viability: 0.513
[6]; first compound 0.005 µM
  relative viability: 1.02
[6]; first compound 0.01581 µM
  relative viability: 1.21
[6]; first compound 0.05 µM
  relative viability: 0.87
[6]; first compound 0.1581 µM
  relative viability: 1.08
[6]; first compound 0.5 µM
  relative viability: 0.999
[7]; first compound 0.005 µM
  relative viability: 1.21
[7]; first compound 0.01581 µM
  relative viability: 1.33
[7]; first compound 0.05 µM
  relative viability: 1.38
[7]; first compound 0.1581 µM
  relative viability: 1.21
[7]; first compound 0.5 µM
  relative viability: 1.22
[8]; first compound 0.005 µM
  relative viability: 0.975
[8]; first compound 0.01581 µM
  relative viability: 1.09
[8]; first compound 0.05 µM
  relative viability: 0.816
[8]; first compound 0.1581 µM
  relative viability: 0.974
[8]; first compound 0.5 µM
  relative viability: 0.906
[9]; first compound 0.005 µM
  relative viability: 0.859
[9]; first compound 0.01581 µM
  relative viability: 0.912
[9]; first compound 0.05 µM
  relative viability: 0.859
[9]; first compound 0.1581 µM
  relative viability: 0.927
[9]; first compound 0.5 µM
  relative viability: 0.882
[10]; first compound 0.005 µM
  relative viability: 0.503
[10]; first compound 0.01581 µM
  relative viability: 0.589
[10]; first compound 0.05 µM
  relative viability: 0.589
[10]; first compound 0.1581 µM
  relative viability: 0.495
[10]; first compound 0.5 µM
  relative viability: 0.47
[11]; first compound 0.005 µM
  relative viability: 0.826
[11]; first compound 0.01581 µM
  relative viability: 0.807
[11]; first compound 0.05 µM
  relative viability: 0.664
[11]; first compound 0.1581 µM
  relative viability: 0.789
[11]; first compound 0.5 µM
  relative viability: 0.339
[12]; first compound 0.005 µM
  relative viability: 0.575
[12]; first compound 0.01581 µM
  relative viability: 0.818
[12]; first compound 0.05 µM
  relative viability: 0.82
[12]; first compound 0.1581 µM
  relative viability: 0.85
[12]; first compound 0.5 µM
  relative viability: 1.1
[13]; first compound 0.005 µM
  relative viability: 1.04
[13]; first compound 0.01581 µM
  relative viability: 1.02
[13]; first compound 0.05 µM
  relative viability: 1.04
[13]; first compound 0.1581 µM
  relative viability: 1.03
[13]; first compound 0.5 µM
  relative viability: 1.01
[14]; first compound 0.005 µM
  relative viability: 0.686
[14]; first compound 0.01581 µM
  relative viability: 1.22
[14]; first compound 0.05 µM
  relative viability: 0.866
[14]; first compound 0.1581 µM
  relative viability: 0.761
[14]; first compound 0.5 µM
  relative viability: 0.863
[15]; first compound 0.005 µM
  relative viability: 1.13
[15]; first compound 0.01581 µM
  relative viability: 1.25
[15]; first compound 0.05 µM
  relative viability: 1.18
[15]; first compound 0.1581 µM
  relative viability: 1.15
[15]; first compound 0.5 µM
  relative viability: 1.06
[16]; first compound 0.005 µM
  relative viability: 0.849
[16]; first compound 0.01581 µM
  relative viability: 1.33
[16]; first compound 0.05 µM
  relative viability: 0.726
[16]; first compound 0.1581 µM
  relative viability: 0.804
[16]; first compound 0.5 µM
  relative viability: 0.992
[17]; first compound 0.005 µM
  relative viability: 1.16
[17]; first compound 0.01581 µM
  relative viability: 1.13
[17]; first compound 0.05 µM
  relative viability: 1
[17]; first compound 0.1581 µM
  relative viability: 1.1
[17]; first compound 0.5 µM
  relative viability: 1.1
[18]; first compound 0.005 µM
  relative viability: 0.905
[18]; first compound 0.01581 µM
  relative viability: 0.979
[18]; first compound 0.05 µM
  relative viability: 0.504
[18]; first compound 0.1581 µM
  relative viability: 0.612
[18]; first compound 0.5 µM
  relative viability: 0.772
[19]; first compound 0.005 µM
  relative viability: 1.07
[19]; first compound 0.01581 µM
  relative viability: 1.14
[19]; first compound 0.05 µM
  relative viability: 1
[19]; first compound 0.1581 µM
  relative viability: 1.09
[19]; first compound 0.5 µM
  relative viability: 1.35
[20]; first compound 0.005 µM
  relative viability: 0.887
[20]; first compound 0.01581 µM
  relative viability: 0.711
[20]; first compound 0.05 µM
  relative viability: 0.989
[20]; first compound 0.1581 µM
  relative viability: 0.853
[20]; first compound 0.5 µM
  relative viability: 0.941
